By IC50 is commonly meant the concentration that inhibits the measured activity by half. For orientation: EC50 means the concentration at which the effect is half-maximal. Broadly, the Ki is the dissociation constant of the complex between target and ligand, obtained from inhibition or displacement.

This is an account of results in ChEMBL document CHEMBL1201862, “PubChem BioAssay data set” (2004).

Activity calls are given as the source filed them.

In test [1] the target is T1, Sentrin-specific protease 8 (Homo sapiens, UniProt Q96LD8).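 Note: luminescence read-out of SENP8 inhibition, dose-response confirmation following an ultra-high-throughput screen.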
T1 sequence (Q96LD8 whole entry): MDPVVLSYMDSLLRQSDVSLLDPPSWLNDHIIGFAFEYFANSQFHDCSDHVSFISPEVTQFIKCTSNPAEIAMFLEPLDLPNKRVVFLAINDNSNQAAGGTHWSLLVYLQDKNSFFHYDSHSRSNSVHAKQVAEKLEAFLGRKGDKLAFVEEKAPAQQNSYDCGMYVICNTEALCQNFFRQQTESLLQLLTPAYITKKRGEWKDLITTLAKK
The test is classed as functional.

The target of the next test is T2, Caspase-3 (Homo sapiens, UniProt P42574).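 Note: Dose-response selectivity test against caspase-3 for candidate inhibitors of sentrin-specific proteases (SENPs).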
T2 sequence (P42574 whole entry): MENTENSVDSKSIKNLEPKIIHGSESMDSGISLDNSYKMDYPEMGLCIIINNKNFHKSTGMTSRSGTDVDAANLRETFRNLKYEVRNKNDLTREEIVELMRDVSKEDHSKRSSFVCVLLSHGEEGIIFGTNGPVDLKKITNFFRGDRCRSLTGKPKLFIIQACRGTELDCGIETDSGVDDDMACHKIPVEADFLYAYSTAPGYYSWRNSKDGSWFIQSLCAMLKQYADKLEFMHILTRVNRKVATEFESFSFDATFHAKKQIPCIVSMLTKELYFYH
The test is classed as functional.

The subject of a further test is Streptococcus. Briefly: Group A Streptococcus viability loss, dose response, counter-screen for streptokinase expression inhibitor project, luminescence, BacTiterGlo (AID 1915).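 Note: potency for reduction of bacterial viability or growth.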 Type of test: functional, organism-based. On the technique in general: The purpose of a counterscreen is to sort out artefacts and off-target activity.
A further test addresses T3, Protein RecA (Mycobacterium tuberculosis, UniProt P9WHJ3).
T3 sequence (P9WHJ3 whole entry): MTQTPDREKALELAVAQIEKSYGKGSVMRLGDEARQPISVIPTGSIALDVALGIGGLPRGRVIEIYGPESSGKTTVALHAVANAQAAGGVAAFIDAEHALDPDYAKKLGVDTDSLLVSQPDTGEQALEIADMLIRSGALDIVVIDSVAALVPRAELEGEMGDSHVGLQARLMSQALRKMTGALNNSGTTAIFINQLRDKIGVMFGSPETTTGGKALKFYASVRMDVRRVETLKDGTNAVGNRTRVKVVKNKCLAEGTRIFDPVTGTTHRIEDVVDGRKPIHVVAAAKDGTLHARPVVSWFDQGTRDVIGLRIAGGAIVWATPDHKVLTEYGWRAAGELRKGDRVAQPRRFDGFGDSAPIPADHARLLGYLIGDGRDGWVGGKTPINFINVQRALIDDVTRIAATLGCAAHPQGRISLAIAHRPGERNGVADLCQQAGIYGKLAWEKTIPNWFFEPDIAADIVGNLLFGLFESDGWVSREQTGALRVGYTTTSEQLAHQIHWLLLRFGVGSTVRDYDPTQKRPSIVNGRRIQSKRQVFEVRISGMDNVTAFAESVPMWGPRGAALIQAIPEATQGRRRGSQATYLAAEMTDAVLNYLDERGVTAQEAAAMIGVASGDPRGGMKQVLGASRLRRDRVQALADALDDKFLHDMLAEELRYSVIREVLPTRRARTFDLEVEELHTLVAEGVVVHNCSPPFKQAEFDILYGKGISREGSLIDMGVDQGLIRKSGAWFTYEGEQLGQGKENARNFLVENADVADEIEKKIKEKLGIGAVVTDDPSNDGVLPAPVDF
Briefly: Fluorescence Cell-Free Homogeneous Dose Retest to Identify Inhibitors of RecA-Intein Splicing Activity. [Related pubchem assays (depositor defined):AID2097, AID2223, AID489010, AID492950]. The test is classed as functional.

For test [2], the target named is Mitogen-activated protein kinase kinase kinase kinase 4 (Homo sapiens, UniProt O95819). Type of test: functional.
Chain of Mitogen-activated protein kinase kinase kinase kinase 4 (O95819 whole entry): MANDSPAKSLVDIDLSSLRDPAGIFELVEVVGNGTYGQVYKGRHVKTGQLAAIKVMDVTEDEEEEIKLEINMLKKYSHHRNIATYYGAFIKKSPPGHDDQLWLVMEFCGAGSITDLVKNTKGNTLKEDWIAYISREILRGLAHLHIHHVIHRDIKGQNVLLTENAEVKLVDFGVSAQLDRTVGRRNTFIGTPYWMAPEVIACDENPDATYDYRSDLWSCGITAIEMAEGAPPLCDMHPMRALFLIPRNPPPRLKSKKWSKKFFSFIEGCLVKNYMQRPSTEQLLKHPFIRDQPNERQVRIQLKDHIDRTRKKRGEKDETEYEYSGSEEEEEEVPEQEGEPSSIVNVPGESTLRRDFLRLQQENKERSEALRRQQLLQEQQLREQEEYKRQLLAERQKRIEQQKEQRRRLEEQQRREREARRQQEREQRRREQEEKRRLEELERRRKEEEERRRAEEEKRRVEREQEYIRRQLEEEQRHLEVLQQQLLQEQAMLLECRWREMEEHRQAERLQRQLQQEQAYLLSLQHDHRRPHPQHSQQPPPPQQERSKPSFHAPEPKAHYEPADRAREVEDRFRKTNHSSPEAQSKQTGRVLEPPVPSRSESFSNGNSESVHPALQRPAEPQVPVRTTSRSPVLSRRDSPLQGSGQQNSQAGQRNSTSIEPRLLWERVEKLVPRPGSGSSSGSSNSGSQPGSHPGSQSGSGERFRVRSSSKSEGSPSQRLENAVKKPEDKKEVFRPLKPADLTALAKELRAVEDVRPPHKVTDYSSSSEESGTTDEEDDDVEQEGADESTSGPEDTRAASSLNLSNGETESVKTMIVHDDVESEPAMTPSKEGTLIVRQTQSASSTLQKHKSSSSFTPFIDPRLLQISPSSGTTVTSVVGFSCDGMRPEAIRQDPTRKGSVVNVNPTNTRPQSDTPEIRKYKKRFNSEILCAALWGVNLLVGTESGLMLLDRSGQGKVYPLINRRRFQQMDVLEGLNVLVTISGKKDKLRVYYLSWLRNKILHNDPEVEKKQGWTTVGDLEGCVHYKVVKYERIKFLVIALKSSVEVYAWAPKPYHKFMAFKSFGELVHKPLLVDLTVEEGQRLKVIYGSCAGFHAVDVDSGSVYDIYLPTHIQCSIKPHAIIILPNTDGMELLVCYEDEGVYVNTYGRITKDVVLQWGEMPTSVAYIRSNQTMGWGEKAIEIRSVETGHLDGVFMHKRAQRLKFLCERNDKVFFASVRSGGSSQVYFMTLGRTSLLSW
The target in test [3] is Leukocyte tyrosine kinase receptor (Homo sapiens, UniProt P29376). Briefly: Navigating the Kinome. Panel member name: LTK. Type of test: functional.
Chain of Leukocyte tyrosine kinase receptor (P29376 whole entry): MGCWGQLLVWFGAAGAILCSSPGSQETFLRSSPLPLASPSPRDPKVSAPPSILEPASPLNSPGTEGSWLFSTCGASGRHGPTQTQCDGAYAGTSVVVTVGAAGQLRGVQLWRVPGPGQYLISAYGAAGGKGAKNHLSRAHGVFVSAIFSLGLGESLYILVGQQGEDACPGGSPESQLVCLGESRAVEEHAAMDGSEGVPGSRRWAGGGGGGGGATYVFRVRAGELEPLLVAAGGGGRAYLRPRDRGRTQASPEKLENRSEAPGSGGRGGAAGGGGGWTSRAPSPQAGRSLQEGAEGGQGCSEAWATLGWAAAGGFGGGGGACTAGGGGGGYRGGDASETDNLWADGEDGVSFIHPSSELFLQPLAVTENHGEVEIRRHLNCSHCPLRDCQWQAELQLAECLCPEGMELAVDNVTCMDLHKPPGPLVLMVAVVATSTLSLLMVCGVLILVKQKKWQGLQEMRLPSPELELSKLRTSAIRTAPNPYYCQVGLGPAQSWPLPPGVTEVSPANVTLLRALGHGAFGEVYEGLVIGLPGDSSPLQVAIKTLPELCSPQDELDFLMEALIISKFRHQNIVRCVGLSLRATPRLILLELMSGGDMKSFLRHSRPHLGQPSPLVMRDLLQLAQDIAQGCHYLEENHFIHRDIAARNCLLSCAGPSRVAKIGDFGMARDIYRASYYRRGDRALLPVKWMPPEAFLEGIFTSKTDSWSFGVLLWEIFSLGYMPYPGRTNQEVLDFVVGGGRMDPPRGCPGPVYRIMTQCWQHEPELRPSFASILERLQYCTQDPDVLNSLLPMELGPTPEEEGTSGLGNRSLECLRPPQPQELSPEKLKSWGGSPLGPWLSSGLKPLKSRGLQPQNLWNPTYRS
The target in test [4] is Dual specificity tyrosine-phosphorylation-regulated kinase 1A (Homo sapiens, UniProt Q13627). The test is classed as functional.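 Note: measured against DYRK1A as one member of a broad kinome profiling panel.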
The target of test [5] is T4, Serine/threonine-protein kinase D3 (Homo sapiens, UniProt O94806).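 Note: determined within a kinase panel screen, with PRKCN as the panel member.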
T4 sequence (O94806 whole entry): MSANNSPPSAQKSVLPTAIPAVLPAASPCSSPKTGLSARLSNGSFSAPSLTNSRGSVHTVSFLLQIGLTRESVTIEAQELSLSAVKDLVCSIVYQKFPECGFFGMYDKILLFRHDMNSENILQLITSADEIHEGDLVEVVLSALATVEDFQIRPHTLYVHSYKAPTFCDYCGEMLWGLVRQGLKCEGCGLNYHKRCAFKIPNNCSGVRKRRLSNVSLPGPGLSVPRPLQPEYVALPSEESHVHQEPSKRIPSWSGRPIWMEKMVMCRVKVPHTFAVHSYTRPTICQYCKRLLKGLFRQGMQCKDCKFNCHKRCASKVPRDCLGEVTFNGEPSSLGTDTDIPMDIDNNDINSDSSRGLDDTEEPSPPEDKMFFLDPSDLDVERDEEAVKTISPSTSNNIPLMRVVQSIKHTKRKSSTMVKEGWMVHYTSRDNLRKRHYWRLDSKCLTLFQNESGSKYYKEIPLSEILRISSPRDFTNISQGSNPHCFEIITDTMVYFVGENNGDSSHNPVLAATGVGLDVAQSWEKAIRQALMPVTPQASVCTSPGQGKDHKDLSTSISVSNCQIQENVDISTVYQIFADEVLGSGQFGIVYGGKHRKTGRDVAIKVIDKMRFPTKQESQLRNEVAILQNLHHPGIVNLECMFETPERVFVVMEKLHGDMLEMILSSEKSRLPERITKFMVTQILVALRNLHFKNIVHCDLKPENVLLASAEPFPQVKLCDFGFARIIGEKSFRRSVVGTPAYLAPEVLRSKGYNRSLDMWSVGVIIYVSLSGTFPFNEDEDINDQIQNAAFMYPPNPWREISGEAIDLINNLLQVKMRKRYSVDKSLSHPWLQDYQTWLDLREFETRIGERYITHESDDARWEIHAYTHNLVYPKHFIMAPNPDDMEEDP
Type of test: functional.

In test [6] the target is Platelet-derived growth factor receptor alpha (Homo sapiens, UniProt P16234). Kind of test: Navigating the Kinome. Panel member name: PDGFRA. Type of test: functional.
Chain of Platelet-derived growth factor receptor alpha (P16234 whole entry): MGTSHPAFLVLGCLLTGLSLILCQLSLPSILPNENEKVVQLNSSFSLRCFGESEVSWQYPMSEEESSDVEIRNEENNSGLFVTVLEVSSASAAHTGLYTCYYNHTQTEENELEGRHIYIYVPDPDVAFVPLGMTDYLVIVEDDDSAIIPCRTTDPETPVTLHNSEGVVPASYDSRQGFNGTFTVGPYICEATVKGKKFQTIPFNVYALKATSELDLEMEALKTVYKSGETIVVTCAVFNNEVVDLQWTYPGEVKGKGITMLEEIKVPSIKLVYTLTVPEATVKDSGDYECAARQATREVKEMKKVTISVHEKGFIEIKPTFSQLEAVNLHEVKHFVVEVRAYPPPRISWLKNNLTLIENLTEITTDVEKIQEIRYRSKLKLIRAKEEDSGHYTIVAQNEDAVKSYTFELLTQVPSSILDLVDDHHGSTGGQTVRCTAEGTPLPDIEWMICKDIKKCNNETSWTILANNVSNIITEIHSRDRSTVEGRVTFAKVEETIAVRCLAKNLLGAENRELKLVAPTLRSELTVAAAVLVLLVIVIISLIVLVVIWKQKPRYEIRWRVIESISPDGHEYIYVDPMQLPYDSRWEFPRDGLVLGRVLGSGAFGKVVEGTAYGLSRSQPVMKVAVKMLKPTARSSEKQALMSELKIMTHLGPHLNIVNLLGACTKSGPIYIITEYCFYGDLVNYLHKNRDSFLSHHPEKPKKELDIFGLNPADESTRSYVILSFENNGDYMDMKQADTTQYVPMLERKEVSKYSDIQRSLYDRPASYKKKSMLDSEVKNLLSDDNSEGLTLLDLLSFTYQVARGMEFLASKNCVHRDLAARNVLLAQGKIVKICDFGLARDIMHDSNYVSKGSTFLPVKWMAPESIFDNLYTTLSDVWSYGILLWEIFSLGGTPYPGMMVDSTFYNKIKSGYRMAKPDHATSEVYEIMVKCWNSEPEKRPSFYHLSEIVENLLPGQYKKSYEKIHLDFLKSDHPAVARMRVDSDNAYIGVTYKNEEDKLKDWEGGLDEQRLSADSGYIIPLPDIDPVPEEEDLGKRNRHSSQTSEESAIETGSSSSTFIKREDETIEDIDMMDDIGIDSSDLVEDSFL

In the case of `CCCNC(=O)c1c(N)n(CC2CCCO2)c2nc3ccccc3nc12` (stereo not drawn), the IC50 in [1] was 3.35 µM (active); on Caspase-3, 15.2 µM (active).

As for `CCc1ccc(S(=O)(=O)/N=C2\C=C(Nc3ccc(O)cc3)C(=O)c3ccccc32)cc1`, the 50% effective concentration (EC50) with Streptococcus is 2.16 µM (active); at Protein RecA, 0.306 µM (active).

`O=C1/C(=C\c2cccc(O)c2O)SC(=S)N1Cc1ccccc1`: the EC50 is 6.24 µM (active) with Streptococcus and 1.95 µM (active) at Protein RecA.

On to `CC(C)(C)c1cc[n+](C2=C([N-]S(=O)(=O)c3cccs3)C(=O)c3ccccc3C2=O)cc1`, for which the IC50 was 9.58 µM (active) in test [1] and 23.8 µM (active) at Caspase-3. For the same compound, the EC50 was 7.2 µM (active) with Streptococcus and 0.95 µM (active) on Protein RecA.

Take `COc1c(-c2nc3ccccc3[nH]2)c(O)cc2oc(C)cc(=O)c12`: the Ki in test [2] is 5.01 µM (active); in test [3] it was 0.158 µM (active); in test [4] it was 0.2 µM (active); in test [5] it was 0.794 µM (active); in [6], 0.631 µM (active).

Consider `Cc1cc([N+](=O)[O-])cc(/C=N\NC(=O)C2COc3ccccc3O2)c1O` (stereo not drawn), for which the IC50 in test [1] is 42.1 µM (active); on Caspase-3, 17.6 µM (active). In addition, the EC50 in the test with Streptococcus is 2.79 µM (active).

As to `COC(=O)c1c(N)nc2ccccn12`, the Ki is 12.6 µM (active) in test [2]; 10 µM (active) in test [3]; 39.8 µM (active) in [4]; 50.1 µM (active) in test [5]; 79.4 µM (active) in test [6].

For the compound `Cc1ccc(F)c(NC(=O)Nc2ccc(-c3cccc4[nH]nc(N)c34)cc2)c1` [LINIFANIB], the Ki is > 5.01 µM (inactive) in test [2]; 1 µM (active) in [3]; > 2 µM (inactive) in test [4]; > 3.98 µM (inactive) in test [5]; 0.0501 µM (active) in test [6].
